What was measured:
[1] = Pharmacokinetic study in healthy volunteers after oral fixed-combination tablet, plasma measured by USA-DMSPE-HPLC-UV; type: in vivo; conditions: human; for half-life: read-out: T ½ (converted)
Protocol: First of all, some frozen human plasma samples were allowed to be thawed at room temperature (23 ± 0.5 °C) and afterwards they were placed into centrifuge tubes. Acetonitrile was applied as a deproteinizing agent to precipitate all proteins existing in plasma. In this regard, 1.9 mL of plasma was spiked with 100.0 μL of working standard solutions to get the suitable concentration level of DIC and FEB, then, to all tubes, 2.0 mL acetonitrile was added. All the biological samples were vortexed for 3 min for complete mixing and followed with centrifugation at 5000 rpm for 4 min. For evaporating the acetonitrile content of each real sample, the tube containing the spiked sample was placed under a stream of nitrogen. To adjust the pH of media, 4.0 mL buffer solution at pH 5.0 was added to real sample. Eventually, 5.0 mL of the resultant spiked sample was subjected to the extraction and measurement protocols for further evaluations.
5.0 mL of the prepared spiked human plasma was placed into a centrifuge tube and then 20.0 mg of synthesized hybrid sorbent was added to the tube. For ensuring the complete dispersion of the supermagnetic hybrid sorbent into the solution, ultrasonic irradiation was utilized for 6 min. As the sorbent is dispersed through the sample, the target drugs are adsorbed on the surface of it. Subsequently, an external magnetic field composed of neodymium (Nd), iron (Fe) and boron (B) (0.8 tesla) was applied to separate the hybrid sorbent from media and the free drug sample was removed by a pipette. In order to desorb the target drugs from the extractor, it was washed with 1.5 mL with acetonitrile in three steps (0.5 mL in each step) while ultrasonic irradiation was applied for 3 min. Nd-Fe-B-Nd magnet was used again in this step and then the solution was separated and dried under a stream of nitrogen. After collecting the remaining material, which contains DIC and FEB, was dissolved in 50.0 μL of the mobile phase of HPLC and 20.0 μL of it was injected into the separation column and further measurements were carried out.
The volunteer's blood were collected after 0 to 4 and 8, 12 and 24 h of taking the drug and the samples were transferred to the polypropylene tubes containing ethylenediaminetetraacetic acid and centrifuged to achieve the required human plasma, after that the samples were kept at −18 °C. […] The samples were analyzed by means of the current method and the average concentration of each drug versus time was drawn. In this assessment, some major pharmacokinetic features including Tmax, Cmax, AUC0–t, AUC0–∞, and T½ were calculated and the results were summarized in Table 3.

[2] = parameters: method as in doi:10.1016/j.microc.2019.03.022, PMID 28953473; conditions: reported values; cited from earlier work

SMILES	Tmax [1]	half-life [1]	pKa [2]
O=C(O)Cc1ccccc1Nc1c(Cl)cccc1Cl [Diclofenac, 2-(2,6-dichloranilino)phenylacetic acid]	2.88 ± 0.3 h	5.1 ± 1.1 h	
Cc1nc(-c2ccc(OCC(C)C)c(C#N)c2)sc1C(=O)O [Febuxostat, 2-(3-cyano-4-isobutoxyphenyl)-4-methyl-1,3-thiazole-5-carboxylic acid]	3.15 ± 0.27 h	6.3 ± 1.5 h	3.3

From paper PMC9041133 (RSC Advances, 2021)
